Measurements as given in publication PMC10355191 (Chemical research in toxicology, 2023).

Target: α2A-adrenergic receptor (Homo sapiens, UniProt P08913)
Sequence (P08913 whole entry): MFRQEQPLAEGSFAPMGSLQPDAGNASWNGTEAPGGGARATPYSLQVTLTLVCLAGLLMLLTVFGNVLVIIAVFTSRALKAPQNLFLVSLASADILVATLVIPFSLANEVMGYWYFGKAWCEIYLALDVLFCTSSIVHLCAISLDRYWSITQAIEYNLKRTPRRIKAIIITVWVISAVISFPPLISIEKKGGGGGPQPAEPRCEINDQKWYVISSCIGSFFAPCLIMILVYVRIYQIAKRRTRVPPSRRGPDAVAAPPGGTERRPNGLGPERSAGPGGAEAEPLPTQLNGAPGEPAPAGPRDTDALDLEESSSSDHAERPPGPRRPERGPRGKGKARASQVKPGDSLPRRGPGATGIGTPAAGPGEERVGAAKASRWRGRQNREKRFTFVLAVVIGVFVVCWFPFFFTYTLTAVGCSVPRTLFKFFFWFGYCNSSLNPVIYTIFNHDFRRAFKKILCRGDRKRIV

For N=C(N)N/N=C/c1c(Cl)cccc1Cl [E-GA, trans-guanabenz], which “% inhibition at 1 μM” value is on record?
Its value is 50.
